Values quoted from earlier work as cited in US20060177860A1, “Genetic markers in the HLA-DQBI gene associated with an adverse hematological response to drugs” (priority 2005, published 2006).

Conditions: as taught by U.S. Pat. No. 5,312,819

O=C1O[C@H]([C@@H](O)CO)C(O)=C1O [L-ascorbic acid]
effect of radical scavenger on formation of free radicals of clozapine: reduces the formation of free radicals of clozapine
